Data published in ChEMBL document CHEMBL5584247, “Stereochemical properties of quazepam and its affinity for the GABAA receptor” (Bioorg Med Chem Lett, 2024).
Values joined by “and” are separate entries in the source; they are usually repeats but may differ in a detail not shown here. Identical values can stand only once.

Legend:
[1] = target: T1, GABA-A receptor; anion channel (Homo sapiens) (UniProt P14867+P47870+P18507+P28472+P48169+Q99928+Q9UN88+P34903+O00591+O14764+Q8N1C3+P18505+P78334+P47869+P31644+Q16445); assay: Inhibition of GABAA receptor (unknown origin) at 50 uM relative to control; format: protein-complex assay
[2] = target: T1, GABA-A receptor; anion channel (Homo sapiens); assay: Inhibition of GABAA receptor (unknown origin) at 10 uM relative to control; format: protein-complex assay

Q: For `Cc1cc(Cl)cc2c1N(CC(F)(F)F)C(=S)CN=C2c1ccccc1F`, which inhibition [1] is on record?
A: The inhibition was 35% and 31%.

Q: And the inhibition ([1]; INHIBITOR)?
A: The inhibition was 53%.

Q: And the inhibition [2]?
A: Its inhibition is 24% and 17% and 26%.
